We go through eight compounds from ChEMBL document CHEMBL1201862, “PubChem BioAssay data set” (2004).

The structures appear in SMILES notation. Calls of active or inactive are those of the source.

Experiment [1] in a line: microbe, parasite or virus in culture. In kind it is functional. To be noted: Mycobacterium tuberculosis.
A further experiment deals with H4. As to the kind of experiment: Luminescence Cell-Based Dose Response HTS to Identify Activators of 5'UTR Stem-Loop Driven Prion Protein mRNA Translation in H4 Neuroglioblastoma Cells. [Related pubchem assays: 1829 (Project Summary), 1814 (Primary HTS)]. The class given is functional. The following applies: Homo sapiens.
Experiment [2] in a line: THP-1 cell cytotoxicity, dose response, cytotoxicity control for non-replicating M. tuberculosis project (AID 489025). In kind it is functional.
The nature of experiment [3]: Luminescence Cell-Based Dose Response HTS to Identify Activators of Luciferase Translation or Activity in H4 […] Cells. [Related pubchem assays: 1829 (Project Summary), 1814 (Primary HTS)]. In kind it is functional.
The next experiment deals with Streptococcus. As to the kind of experiment: Group A Streptococcus viability loss, dose response, counter-screen for streptokinase expression inhibitor project, luminescence, BacTiterGlo (AID 1915).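 Note: potency for reduction of bacterial viability or growth.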 The class given is functional, organism-based.
A short description of experiment [4]: CFTR ΔF508 corrector activity in bronchial cells, dose response, human bronchial epithelial cells, plate reader, cherry-pick, two tests (AID 743267). In kind it is functional, cell-based.
The nature of experiment [5]: HepG2 cell cytotoxicity, dose response, cytotoxicity control for non-replicating M. tuberculosis project (AID 489018). In kind it is functional. The following applies: Mycobacterium tuberculosis.
A short description of experiment [6]: cytotoxicity in NIH3T3 fibroblasts, dose response, cytotoxicity control for HSP40 inhibitor project, cell-based, CellTiter-Glo luminescence, cherry-pick, set 2 (AID 624265). In kind it is functional. (In ATP-based viability assays light output follows the ATP content of the culture.)
The nature of experiment [7]: Luminescence Cell-Based Dose Confirmation HTS to Identify Activators of 5'UTR Stem-Loop Driven Alpha-Synuclein mRNA Translation in H4 Neuroglioblastoma Cells. [Related pubchem assays: 1829 (Project Summary), 1814 (Primary HTS)]. In kind it is functional.
In another experiment the target is T1, Streptokinase A (Streptococcus pyogenes serotype M1, UniProt P10520).
T1 sequence (P10520 whole entry): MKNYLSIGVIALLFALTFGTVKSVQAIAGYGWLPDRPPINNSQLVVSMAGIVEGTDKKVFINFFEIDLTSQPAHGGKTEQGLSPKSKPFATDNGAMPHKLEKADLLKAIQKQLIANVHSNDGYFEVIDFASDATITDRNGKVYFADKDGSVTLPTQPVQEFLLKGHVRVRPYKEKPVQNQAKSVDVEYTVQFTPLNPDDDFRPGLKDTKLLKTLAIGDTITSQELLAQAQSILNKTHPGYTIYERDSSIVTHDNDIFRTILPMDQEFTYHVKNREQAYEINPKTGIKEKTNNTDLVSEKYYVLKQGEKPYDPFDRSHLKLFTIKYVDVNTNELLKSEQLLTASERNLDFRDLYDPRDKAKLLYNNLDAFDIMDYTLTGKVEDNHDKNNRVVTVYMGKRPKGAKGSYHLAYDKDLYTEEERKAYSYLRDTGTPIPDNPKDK
The experiment can be described thus: S. pyogenes streptokinase expression inhibitors, potency, dose response, plasminogen activation absorbance, OD405 (AID 1914).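 Note: secreted streptokinase activity via plasminogen activation per viability signal from cell pellet.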 The class given is functional, Streptococcus pyogenes M1 GAS.

A short description of another experiment: cells. In kind it is functional.
Experiment [8] can be described thus: Vero E6 cell cytotoxicity, dose response, cytotoxicity control for non-replicating M. tuberculosis project, secondary assay (AID 492998). The following applies: Vero C1008. The class given is functional, VeroE6.
The test system of experiment [9] is Streptococcus sp. 'group A'. The experiment can be described thus: growth inhibition of control SK(-) GAS strain, dose response, counter-screen for streptokinase expression inhibitor project, luminescence, kanamycin, BacTiterGlo, confirmation (AID 1900). In kind it is functional, organism-based.
The target in experiment [10] is G-protein coupled receptor 55 (Homo sapiens, UniProt Q9Y2T6). The experiment can be described thus: GPR55 antagonists blocking LPI-driven arrestin recruitment, primary screen, imaging, U2OS, beta-arrestin-GFP, LPI agonist (AID 2013).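 Note: antagonist potency measured as reduced agonist-driven arrestin aggregation.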 In kind it is functional. (Recruitment of arrestin is a read-out of receptor activation apart from second messengers.)
Chain of G-protein coupled receptor 55 (Q9Y2T6 whole entry): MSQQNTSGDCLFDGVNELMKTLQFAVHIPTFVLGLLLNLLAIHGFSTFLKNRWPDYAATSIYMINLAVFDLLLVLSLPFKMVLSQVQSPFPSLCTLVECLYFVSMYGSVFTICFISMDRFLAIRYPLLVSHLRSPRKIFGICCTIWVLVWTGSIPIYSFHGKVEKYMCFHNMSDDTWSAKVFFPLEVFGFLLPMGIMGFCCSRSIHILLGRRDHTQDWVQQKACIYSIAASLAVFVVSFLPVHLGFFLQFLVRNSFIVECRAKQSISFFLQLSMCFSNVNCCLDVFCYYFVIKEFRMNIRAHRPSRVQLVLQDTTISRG
Experiment [11] is described as follows: HepG2 cell cytotoxicity, dose response, cytotoxicity control, ATP luminescence, cherry-pick, activator set 2 (AID 1053143). In kind it is functional, cell-based.
Experiment [12] in a line: NIH:OVCAR-3 ovarian cancer cell cytotoxicity, dose response, PAX8 inhibitor project, plate reader, dry powder samples (AID 743044). In kind it is functional, cell-based.
Experiment [13] is described as follows: cytotoxicity in COV362 ovarian cancer cells, dose response, cytotoxicity control for PAX8 inhibitor project, cell-based, plate reader, dry powder, SA12 (AID 743144). In kind it is functional.
Experiment [14] in a line: IGROV1 ovarian cancer cell cytotoxicity, dose response, PAX8 inhibitor project, plate reader, dry powder samples (AID 743043). In kind it is functional, cell-based. To be noted: IGROV-1.
Experiment [15] is described as follows: PAX2 cell-based inhibition, dose response, selectivity assay for PAX8 inhibitor project, plate reader, dry powder samples (AID 743048).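 Note: HEK293 cells carrying a WT1 promoter luciferase reporter driven by expressed Pax2; potency is for inhibition of Pax2 driven reporter signal.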 In kind it is functional.
A further experiment deals with Paired box protein Pax-8 (Homo sapiens, UniProt Q06710). As to the kind of experiment: inhibitors of PAX8-driven TPO luciferase reporter, dose response, RMG-I cells, cherry-pick (AID 687027).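 Note: luciferase reporter driven by Pax8 target thyroperoxidase promoter measured by SteadyGlo luminescence.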 In kind it is functional, cell-based. (In general: In a reporter assay the amount or activity of a reporter protein is the signal.)
Chain of Paired box protein Pax-8 (Q06710 whole entry): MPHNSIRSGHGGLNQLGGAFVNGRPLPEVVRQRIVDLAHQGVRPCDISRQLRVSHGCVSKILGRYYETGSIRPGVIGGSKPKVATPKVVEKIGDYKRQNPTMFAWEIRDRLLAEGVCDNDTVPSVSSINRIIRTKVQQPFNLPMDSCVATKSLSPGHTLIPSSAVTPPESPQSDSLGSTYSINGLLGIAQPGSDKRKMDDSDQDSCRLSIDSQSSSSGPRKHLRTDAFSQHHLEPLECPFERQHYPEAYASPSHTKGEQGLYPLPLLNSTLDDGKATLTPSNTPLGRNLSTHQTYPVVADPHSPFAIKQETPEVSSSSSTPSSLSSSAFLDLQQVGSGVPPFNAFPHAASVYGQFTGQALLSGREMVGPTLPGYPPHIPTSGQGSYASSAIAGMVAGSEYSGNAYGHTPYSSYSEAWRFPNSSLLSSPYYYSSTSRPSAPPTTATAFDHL
The nature of experiment [16]: cytotoxicity dependent on PAX8, dose response, cell-based, plate reader, dry powder (AID 743049). The class given is functional.
The nature of experiment [17]: cytotoxicity in OV-90 ovarian cancer cells, dose response, PAX8 inhibitor project, cell-based, plate reader, dry powder, SA8 (AID 743149). The class given is functional.
The target of another experiment is Beta-galactosidase (Escherichia coli, UniProt Q8VNN2). The experiment can be described thus: Dose response counterscreen for EBI2 assay utilizing the enzyme, b-galactosidase. In kind it is functional.
Chain of Beta-galactosidase (Q8VNN2 whole entry): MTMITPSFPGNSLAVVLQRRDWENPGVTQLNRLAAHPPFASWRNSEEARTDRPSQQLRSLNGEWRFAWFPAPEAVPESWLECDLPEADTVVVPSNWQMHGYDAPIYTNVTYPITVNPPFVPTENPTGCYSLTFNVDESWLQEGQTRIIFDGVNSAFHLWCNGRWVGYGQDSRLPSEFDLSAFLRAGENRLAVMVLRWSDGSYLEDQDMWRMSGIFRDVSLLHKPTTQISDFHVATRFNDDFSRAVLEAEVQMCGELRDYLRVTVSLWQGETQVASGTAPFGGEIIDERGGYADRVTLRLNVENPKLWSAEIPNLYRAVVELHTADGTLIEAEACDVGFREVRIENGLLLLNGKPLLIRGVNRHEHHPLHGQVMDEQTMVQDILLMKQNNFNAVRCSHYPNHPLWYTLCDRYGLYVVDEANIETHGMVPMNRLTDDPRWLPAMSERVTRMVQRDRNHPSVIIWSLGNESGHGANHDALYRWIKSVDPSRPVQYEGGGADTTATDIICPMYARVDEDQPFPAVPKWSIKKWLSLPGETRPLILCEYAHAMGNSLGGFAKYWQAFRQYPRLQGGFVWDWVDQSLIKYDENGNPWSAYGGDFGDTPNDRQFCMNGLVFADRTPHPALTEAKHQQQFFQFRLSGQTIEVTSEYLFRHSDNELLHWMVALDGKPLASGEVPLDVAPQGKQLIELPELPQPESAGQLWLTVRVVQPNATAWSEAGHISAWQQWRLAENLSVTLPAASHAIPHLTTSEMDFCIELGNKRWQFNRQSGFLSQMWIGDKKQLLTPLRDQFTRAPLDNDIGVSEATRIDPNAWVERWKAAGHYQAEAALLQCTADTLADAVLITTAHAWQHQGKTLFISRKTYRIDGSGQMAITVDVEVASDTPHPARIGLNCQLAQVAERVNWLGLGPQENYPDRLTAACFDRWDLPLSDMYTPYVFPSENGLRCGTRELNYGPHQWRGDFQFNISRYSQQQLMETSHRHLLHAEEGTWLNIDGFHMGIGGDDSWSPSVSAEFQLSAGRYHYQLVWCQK
A short description of experiment [18]: cytotoxicity in OVCAR4 cells, dose response, cytotoxicity control for PAX8 inhibitor project, cell-based, plate reader, dry powder, SA11 (AID 743150). The class given is functional. To be noted: OVCAR-4.
A short description of experiment [19]: cytotoxicity in COV434 cells, dose response, cytotoxicity control for PAX8 inhibitor project, cell-based, plate reader, dry powder, SA7 (AID 743145). The class given is functional.
Experiment [20] addresses Photoreceptor-specific nuclear receptor (Homo sapiens, UniProt Q9Y5X4). In kind it is functional, cell-based.
The target of another experiment is Beta Lactamase (Pseudomonas aeruginosa, UniProt Q932Y6). As to the kind of experiment: beta-lactamase reporter inhibitor potency, dose response, artefact control for TLR9-MyD88 binding inhibitor project, BLA reporter cells, FRET fluorescence (AID 588341).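 Note: cell based assay in CHO-K1 cells stably expressing beta-lactamase.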 In kind it is cell-based.
Chain of Beta Lactamase (Q932Y6 whole entry, the tested form may be a part): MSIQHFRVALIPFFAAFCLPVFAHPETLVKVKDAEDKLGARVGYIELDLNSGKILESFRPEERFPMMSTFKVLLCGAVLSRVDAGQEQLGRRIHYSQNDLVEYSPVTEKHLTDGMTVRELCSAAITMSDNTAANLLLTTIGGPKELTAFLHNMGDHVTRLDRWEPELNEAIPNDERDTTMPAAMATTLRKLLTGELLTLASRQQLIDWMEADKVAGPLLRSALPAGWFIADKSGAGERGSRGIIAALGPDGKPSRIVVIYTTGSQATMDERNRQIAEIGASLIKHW
In another experiment the test system is CHO. As to the kind of experiment: cytotoxicity in TLR9-MyD88 CHO cells, dose response, cytotoxicity control for TLR9-MyD88 binding inhibitor project, cell-based, luminescence (AID 588339).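 Note: CHO cells stably coexpressing TLR9 and MyD88 fusions from primary screen; compound exposure lasted 48 hours before viability readout.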 To be noted: Cricetulus griseus. In kind it is functional, hamster.
Experiment [21] is described as follows: Late stage assay provider counterscreen for TLR9 inhibitors: absorbance-based cell-based MTT cytotoxicity assay. The class given is functional.
Experiment [22] can be described thus: inhibitors of fibronectin matrix deposition, dose response, AH1F cells, Alexa488-FN fluorescence, cherry-picks (AID 1035475). In kind it is functional, cell-based.
The target of experiment [23] is Potassium channel subfamily K member 9 (Homo sapiens, UniProt Q9NPC2). The experiment can be described thus: TASK3 (KCNK9) channel inhibitors, thallium flux, SAR follow-up, selectivity assay for TASK1 inhibitor project, cell-based, FluxOR thallium flux, concentration-response (AID 652211).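 Note: potency is for inhibitors of the channel.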 In kind it is functional.
Chain of Potassium channel subfamily K member 9 (Q9NPC2 whole entry): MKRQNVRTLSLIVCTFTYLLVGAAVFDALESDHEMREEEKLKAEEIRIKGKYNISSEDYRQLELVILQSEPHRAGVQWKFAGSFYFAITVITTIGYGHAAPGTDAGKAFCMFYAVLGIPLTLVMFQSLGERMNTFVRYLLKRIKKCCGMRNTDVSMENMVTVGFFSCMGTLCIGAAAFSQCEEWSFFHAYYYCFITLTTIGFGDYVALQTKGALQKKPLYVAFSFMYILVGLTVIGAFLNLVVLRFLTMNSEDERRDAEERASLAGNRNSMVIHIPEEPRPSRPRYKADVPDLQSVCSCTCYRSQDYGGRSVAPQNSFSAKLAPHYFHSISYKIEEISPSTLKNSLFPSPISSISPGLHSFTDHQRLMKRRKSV
A short description of experiment [24]: T. cruzi intracellular amastigote growth inhibition, dose response, imaging, CA-I/72 strain, bovine embryo skeletal muscle, dry powder (AID 651885). In kind it is functional, cell-based.
The target of experiment [25] is Kappa-type opioid receptor (Homo sapiens, UniProt P41145). As to the kind of experiment: OPRK1 antagonists, late-stage follow-up, cell-based, fluorescence, dose response (AID 652032). The class given is functional.
Chain of Kappa-type opioid receptor (P41145 whole entry): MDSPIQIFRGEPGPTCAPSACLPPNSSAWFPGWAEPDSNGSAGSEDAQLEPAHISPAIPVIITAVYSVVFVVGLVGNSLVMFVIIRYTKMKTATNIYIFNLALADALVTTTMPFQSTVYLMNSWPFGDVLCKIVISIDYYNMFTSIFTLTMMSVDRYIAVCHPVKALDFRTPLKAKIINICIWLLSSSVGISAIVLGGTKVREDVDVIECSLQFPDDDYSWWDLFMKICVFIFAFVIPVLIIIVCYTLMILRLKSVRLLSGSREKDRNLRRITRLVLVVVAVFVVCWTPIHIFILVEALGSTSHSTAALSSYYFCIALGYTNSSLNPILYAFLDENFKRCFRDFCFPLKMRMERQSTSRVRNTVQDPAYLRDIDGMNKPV

Chain of Photoreceptor-specific nuclear receptor (Q9Y5X4 whole entry): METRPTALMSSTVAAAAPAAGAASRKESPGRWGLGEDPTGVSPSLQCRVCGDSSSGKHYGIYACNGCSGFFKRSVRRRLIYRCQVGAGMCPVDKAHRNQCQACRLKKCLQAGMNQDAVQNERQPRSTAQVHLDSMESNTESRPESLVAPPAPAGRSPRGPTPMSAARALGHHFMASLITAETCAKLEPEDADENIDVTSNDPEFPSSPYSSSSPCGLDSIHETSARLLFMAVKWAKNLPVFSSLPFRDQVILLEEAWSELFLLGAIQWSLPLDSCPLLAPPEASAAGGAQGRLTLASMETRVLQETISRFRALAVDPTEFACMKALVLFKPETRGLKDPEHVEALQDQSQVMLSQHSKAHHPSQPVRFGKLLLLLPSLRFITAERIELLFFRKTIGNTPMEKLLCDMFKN

In general, EC50 refers to the concentration giving half of the maximal effect. As usually defined, the AC50 is the concentration at which the activity in the assay is half-maximal. As a reminder, the IC50 is the concentration that gives 50% inhibition. Turning to `NC(=O)N=Nc1c2nc3ccccc3[nH]c-2c2ccccc12`, the CC50 in experiment [1] is 7.97 µM (active); in experiment [2], 23.5 µM (active); in experiment [5] it was > 20 µM (active); in experiment [8], 11.9 µM (active). Moreover, the EC50 in the experiment with H4 was > 120 µM (not active); in experiment [3], > 120 µM (not active); with Streptococcus it was > 150 µM (not active); in [7], 13 µM (active); at Streptokinase A, 46.2 µM (active); in experiment [9], 7.71 µM (active). Further, the AC50 in experiment [4] was 8.41 µM (active). This compound gave an AbsAC35_uM in experiment [6] of 58.66 µM. Further, the IC50 was 11.1 µM (active) in the experiment “cells” and 2.88 µM (active) in experiment [10].

Take `CCC(=O)Nc1sc(C(=O)Nc2ccccc2)c(C)c1C(=O)OC`: the AC50 in [11] was 26 µM (active).

Turning to `O=C(c1cc(-c2cccs2)on1)N1CCN(C(c2ccccc2)c2ccccc2)CC1`, the AC50 in experiment [12] was 60.2 µM (active); in experiment [13] it was 48.4 µM (active); in experiment [14], 44.1 µM (active); in [15], 49.9 µM (active); at Paired box protein Pax-8, 0.733 µM (active); in experiment [16], 9.18 µM (active). Also, the values for the AC50 in experiment [17], in [18] and in experiment [19] were > 100 µM (inactive), 44.4 µM (active) and 80.1 µM (active), respectively. For the same compound, at Beta-galactosidase, the IC50 is > 80 µM (inactive).

Turning to `O=S(=O)(/C=C/C=C/S(=O)(=O)c1ccccc1)c1ccccc1`, the IC50 in [20] is 1.61 µM (active); at Beta Lactamase, > 49.8 µM (inactive); with CHO, 0.959 µM (active). Also, the CC50 in [21] is 0.59 µM (active).

For the compound `CC(=O)Nc1cccc(-c2ccnc3c2CC(C)(C(=O)Nc2cccc(C(F)(F)F)c2)O3)c1` (stereo not drawn), the AC50 in experiment [22] is 22.7 µM (active).

With `Cc1cccc(C(=O)Nc2cccc(NC(=O)c3ccco3)c2)c1`, in experiment [23], the IC50 is 1.67 µM (active).

For the compound `CC(C)N(C)C(=O)c1cccc(NC(=O)c2ccncc2)c1OCCCN(C)Cc1ccc(Cl)cc1`, the IC50 in [24] was 0.385 µM (active).

In the case of `COC(=O)c1cc(Br)cnc1N1CCC(NC2CCCCC2)C(C)C1` (stereo not drawn), in [25], the IC50 is 0.075 µM (active).
